Reference: patent publication US20040029968A1, “Nateglinide-containing hydrophilic pharmaceutical preparation” (AJINOMOTO CO. INC, priority 2000, published 2004)

Assay: Contact angle of the preparation surface to water
Assay type: physicochemical
Conditions: flat, smooth tablets prepared from the crystals; water dropped onto the surface
Experimental: The term “contact angle to water” as employed herein means an angle wherein drops of water to be deposited to the surface of preparation compositions such as tablets and the like contact with said surface, which can be used as an indication of hydrophilic nature. For example, such contact angle is measured by forming 1 μL of droplet of pure water (MILLI-Q; MILLIPORE Co.) on the tip of needle (SNSO 52/026; made from stainless steel, inner diameter of 0.26 mm, outer diameter of 0.52 mm; HAMILTON Co.) and evaluating the contact angle at 60 m sec. after the droplet arrives onto the surface of tablet, using a contact angle measuring device (OCA-15 type; Data Physics Co.). When the surface of tablet has curvature, such contact angle is measured by correcting this curvature to straight line at the time when analysis is conducted. Usually, the contact angle is usually measured at room temperature.
As for preparations of which forms are not tablets, contact angles can be measured after molding powders, granules, semisolids and the like contained in such preparation. For example, in the case of capsules, the contact angle thereof can be determined by removing the contents of capsules and molding 200 mg of the contents into a tablet having diameter of 8 mm and thickness of 3.50 mm and having flat and smooth surface.

| SMILES | contact angle of the surface of tablets to water [degree] |
| --- | --- |
| CC(C)[C@H]1CC[C@H](C(=O)N[C@H](Cc2ccccc2)C(=O)O)CC1 [nateglinide B-type crystals, N-(trans-4-isopropylcyclohexanecarbonyl)-D-phenylalanine] | 95 |
| CC(C)[C@H]1CC[C@H](C(=O)N[C@H](Cc2ccccc2)C(=O)O)CC1 [nateglinide H-type crystals, N-(trans-4-isopropylcyclohexanecarbonyl)-D-phenylalanine] | 85 |
